Assay results from US20170304223A1, “METHOD OF TREATING PROSTATE CANCER USING A PKC INHIBITOR” (priority 2016, published 2017).

Experiments:
PKC-τ = biological target: T1, PKC-τ (Homo sapiens, UniProt P41743); experiment: PKC-iota levels in prostate cells by Western blot after treatment; assay type: cell-based; conditions: 72 hours after treatment
T1 construct: endogenous in cells; host or cells: DU-145
T1 sequence (P41743 1-596): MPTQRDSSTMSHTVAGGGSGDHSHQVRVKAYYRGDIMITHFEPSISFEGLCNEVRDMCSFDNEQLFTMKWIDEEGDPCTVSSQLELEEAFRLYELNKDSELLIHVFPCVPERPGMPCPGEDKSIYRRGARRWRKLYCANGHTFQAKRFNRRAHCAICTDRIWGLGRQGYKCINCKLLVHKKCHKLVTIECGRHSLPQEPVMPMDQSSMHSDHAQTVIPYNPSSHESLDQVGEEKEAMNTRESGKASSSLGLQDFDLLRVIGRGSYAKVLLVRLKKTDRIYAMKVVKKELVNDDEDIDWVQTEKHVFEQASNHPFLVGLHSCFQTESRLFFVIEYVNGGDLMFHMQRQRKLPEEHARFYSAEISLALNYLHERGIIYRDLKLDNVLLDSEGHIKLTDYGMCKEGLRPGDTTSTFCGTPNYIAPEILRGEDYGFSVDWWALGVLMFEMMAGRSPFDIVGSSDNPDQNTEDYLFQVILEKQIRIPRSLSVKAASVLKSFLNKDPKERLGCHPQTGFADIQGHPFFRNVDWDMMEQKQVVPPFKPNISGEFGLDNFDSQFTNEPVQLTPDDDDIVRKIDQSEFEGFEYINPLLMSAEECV
Experimental: Protein was harvested from cultured cells using Lysis Buffer purchased from Cell Signaling. Protein content was measured according to the Bradford method. Tissue extracts containing equal amounts of protein in each lane were run on SDS-PAGE gels. The tissue lysates (50 μg) were Western blotted for PKC-τ (10 μg, 1:2500 dilution): and PKC-ζ (5 μg, 1:4000 dilution) and β-actin (10 μg, 1:3000 dilution).
(§1) Western blots were developed on the Protein Simple Flour Chem M. Accompanied by the Alpha view software for analysis.
ICA-1 was used as a PKC-iota inhibitor. […] The cells were counted before and after the treatments and a statistical analysis was performed. Following cell counting, the cells were lysed and levels of PKC-iota and PKC-zeta were measured by Western blotting and immunoprecipitation.

RWPE cells = experiment: Cell proliferation assay / cell counting, RWPE cells; assay type: cell-based, human; conditions: 10 μM, non-malignant cells (RWPE)
Experimental: (§2) RWPE epithelial cells and DU-145 human prostate carcinoma cells were purchased from American Type Culture Collection (ATCC). PC-3 cells were acquired from Moffit Cancer center. The cells were grown as a monolayer in a T25 tissue culture flask with 5 mL of growth medium and maintained in a 37 C incubator with 5% CO2. The E-MEM and F-12 growth media were obtained from ATCC. The medium was supplemented with 10% fetal bovine serum (FBS) and a mix of the antibiotics Penicillin (10,000 IU) and Streptomycin (10,000 μg/ml) in a 100× concentration which was purchased from Corning.
(§3) RWPE, DU 145 and PC-3 cells were cultured in a T25 cell culture flasks. 20,000 cells were seeded into each. […] The treatment was repeated over the course of 72 hours and samples were taken at 24 hour intervals.
(§4) RWPE, DU 145, and PC-3 cells were cultured in a T25 cell culture flasks. At assigned intervals the cells were trypsonized and put into a 1.5 mL microcentrifuge tube. Cells were inverted gently to keep the solution homogeneous and then the Cell Scepter by Millipore was used to measure cell numbers.

DU-145 cells = experiment: Cell proliferation assay / cell counting, DU-145 cells; assay type: cell-based, human
Experimental: as §2, §3, §4

Cytochrome C = experiment: Apoptotic marker Cytochrome C by Western blot; assay type: cell-based, human
PC-3 cells = experiment: Cell proliferation assay / cell counting, PC-3 cells; assay type: cell-based, human
Experimental: as §2, §3, §4

NF-kB = NF-kB translocation after TNF-α exposure (cell subfractionation); assay type: cell-based, human; conditions: DU-145 and PC-3 cells (cell line not specified), 10 μM, vs untreated control
Experimental: 20,000 cells were seeded into each.
as §1

Survivin = experiment: Apoptotic marker Survivin by Western blot; assay type: cell-based, human
[1] = DU-145 cells, 72 hours of treatment
[2] = RWPE cells, 72 hours of treatment

NC(=O)c1ncn([C@H]2C[C@@H](COP(=O)(O)O)[C@H](O)[C@@H]2O)c1N [ICA-1]
average decrease in PKC-τ (PKC-τ; DU-145 cells): 46%
decrease in PKC-τ (PKC-τ; PC-3 cells): 40%
decrease in cell population (dose-response curve) (RWPE cells): not having a significant decrease
decrease in cell population (dose-response curve) (DU-145 cells; 10 μM, malignant cells (DU-145)): statistically significant decrease in population
reduction in cell growth compared to untreated cells (DU-145 cells; DU-145 cells): 19%
increase in Cytochrome C (Cytochrome C; [1]): ~3 fold
increase in Cytochrome C (Cytochrome C; PC-3 cells): 2 fold
increase of Cytochrome C (Cytochrome C; [2]): 8%
average decline of cell population (PC-3 cells): 18%
decrease of nucleic NFkB (NF-kB): 5 fold
reduction of Survivin (in words) (Survivin; [1]): reduction of Survivin by half
decrease in Survivin (Survivin; PC-3 cells): 40%
decrease in Survivin (Survivin; [2]): 10%
